{"source": "ChEMBL document CHEMBL1201862", "about": "“PubChem BioAssay data set” (2004)", "experiment_in_all_cases": "growth of human tumour cells (NCI), 48 h", "key": {"DU-145": {"tested_on": "DU-145"}, "SNB-75": {"tested_on": "SNB-75"}, "LOX IMVI": {"tested_on": "LOX IMVI"}, "OVCAR-8": {"tested_on": "OVCAR-8"}, "SF-295": {"tested_on": "SF-295"}, "HCC 2998": {"tested_on": "HCC 2998"}, "MOLT-4": {"tested_on": "MOLT-4"}, "SNB-19": {"tested_on": "SNB-19"}, "SF-268": {"tested_on": "SF-268"}, "RXF 393": {"tested_on": "RXF 393"}, "IGROV-1": {"tested_on": "IGROV-1"}, "K562": {"tested_on": "K562"}, "MDA-N": {"tested_on": "MDA-N"}, "CCRF-CEM": {"tested_on": "CCRF-CEM"}, "KM12": {"tested_on": "KM12"}, "M14": {"tested_on": "M14"}, "UO-31": {"tested_on": "UO-31"}, "RPMI-8226": {"tested_on": "RPMI-8226"}, "Malme-3M": {"tested_on": "Malme-3M"}, "SR": {"tested_on": "SR"}, "NCI-H226": {"tested_on": "NCI-H226"}, "MDA-MB-435": {"tested_on": "MDA-MB-435"}, "NCI-H23": {"tested_on": "NCI-H23"}, "A549": {"tested_on": "A549"}, "NCI/ADR-RES": {"tested_on": "NCI/ADR-RES"}, "SK-OV-3": {"tested_on": "SK-OV-3"}, "T47D": {"tested_on": "T47D"}, "MCF7": {"tested_on": "MCF7"}, "HL-60": {"tested_on": "HL-60"}, "NCI-H522": {"tested_on": "NCI-H522"}, "HCT-15": {"tested_on": "HCT-15"}, "BT-549": {"tested_on": "BT-549"}, "OVCAR-4": {"tested_on": "OVCAR-4"}, "HOP-62": {"tested_on": "HOP-62"}, "HT-29": {"tested_on": "HT-29"}, "786-0": {"tested_on": "786-0"}, "UACC-62": {"tested_on": "UACC-62"}, "UACC-257": {"tested_on": "UACC-257"}, "SN12C": {"tested_on": "SN12C"}, "SW-620": {"tested_on": "SW-620"}, "EKVX": {"tested_on": "EKVX"}, "SK-MEL-28": {"tested_on": "SK-MEL-28"}, "COLO 205": {"tested_on": "COLO 205"}, "SK-MEL-5": {"tested_on": "SK-MEL-5"}, "MDA-MB-231": {"tested_on": "MDA-MB-231"}, "HOP-92": {"tested_on": "HOP-92"}, "ACHN": {"tested_on": "ACHN"}, "PC-3": {"tested_on": "PC-3"}, "CAKI-1": {"tested_on": "CAKI-1"}, "NCI-H460": {"tested_on": "NCI-H460"}, "TK-10": {"tested_on": "TK-10"}, "A498": {"tested_on": "A498"}, "OVCAR-3": {"tested_on": "OVCAR-3"}, "SF-539": {"tested_on": "SF-539"}}, "note": "Several values for one entry are separate records, joined by “and”; a condition that tells them apart may be missing. Equal entries are not always repeated.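 The compound was tested at five concentrations on cells cultured in 96-well plates, with a 48-hour exposure period. GI50 = concentration required for 50% inhibition of growth.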 Activity calls are given as the source filed them. Cut-off read from the data, not from the text of the source: active = GI50 up to about 1.1 µM and inactive = higher. *1 amine or outer side, *2 acyl side, *3 side chain or, on linkers, in order; H or OH if unused. Where a SMILES comes first, the peptide text is derived from it. Bridges are numbered along the chain shown (N, C = ends). Roman numbers before positions name the chains, in order. [ ]: non-standard residue; d: D form. Actinocin(1to9) = Cc1c2oc3c(C)ccc(C(=O)[*:2])c3nc-2c(C(=O)[*:1])c(N)c1=O; NMeY = CN[CH](Cc1ccc(O)cc1)C(=O)O; Sar = CNCC(=O)O"}
{"smiles": "CC(C)(C)C1=NC(=S)SC2=NC(=O)C3(NN21)c1ccccc1-c1ccccc13", "values": [{"measurement": "GI50", "setting": "DU-145", "value": "> 10 µM (inactive)"}, {"measurement": "GI50", "setting": "SNB-75", "value": "> 10 µM (inactive)"}, {"measurement": "GI50", "setting": "LOX IMVI", "value": "> 10 µM (inactive)"}, {"measurement": "GI50", "setting": "OVCAR-8", "value": "> 10 µM (inactive)"}, {"measurement": "GI50", "setting": "SF-295", "value": "> 10 µM (inactive)"}, {"measurement": "GI50", "setting": "HCC 2998", "value": "> 10 µM (inactive)"}, {"measurement": "GI50", "setting": "MOLT-4", "value": "3.45 µM (inactive)"}, {"measurement": "GI50", "setting": "SNB-19", "value": "> 10 µM (inactive)"}, {"measurement": "GI50", "setting": "SF-268", "value": "> 10 µM (inactive)"}, {"measurement": "GI50", "setting": "RXF 393", "value": "> 10 µM (inactive)"}, {"measurement": "GI50", "setting": "IGROV-1", "value": "> 10 µM (inactive)"}, {"measurement": "GI50", "setting": "K562", "value": "5.05 µM (inactive)"}, {"measurement": "GI50", "setting": "MDA-N", "value": "8.41 µM (inactive)"}, {"measurement": "GI50", "setting": "CCRF-CEM", "value": "8.71 µM (inactive)"}, {"measurement": "GI50", "setting": "KM12", "value": "> 10 µM (inactive)"}, {"measurement": "GI50", "setting": "M14", "value": "> 10 µM (inactive)"}, {"measurement": "GI50", "setting": "UO-31", "value": "6.58 µM (inactive)"}, {"measurement": "GI50", "setting": "RPMI-8226", "value": "5.08 µM (inactive)"}, {"measurement": "GI50", "setting": "Malme-3M", "value": "> 10 µM (inactive)"}, {"measurement": "GI50", "setting": "SR", "value": "4.59 µM (inactive)"}, {"measurement": "GI50", "setting": "NCI-H226", "value": "6.07 µM (inactive)"}, {"measurement": "GI50", "setting": "MDA-MB-435", "value": "> 10 µM (inactive)"}, {"measurement": "GI50", "setting": "NCI-H23", "value": "> 10 µM (inactive)"}, {"measurement": "GI50", "setting": "A549", "value": "7.26 µM (inactive)"}, {"measurement": "GI50", "setting": "NCI/ADR-RES", "value": "5.41 µM (inactive)"}, {"measurement": "GI50", "setting": "SK-OV-3", "value": "> 10 µM (inactive)"}, {"measurement": "GI50", "setting": "T47D", "value": "2.04 µM (inactive)"}, {"measurement": "GI50", "setting": "MCF7", "value": "4.43 µM (inactive)"}, {"measurement": "GI50", "setting": "HL-60", "value": "6.79 µM (inactive)"}, {"measurement": "GI50", "setting": "NCI-H522", "value": "9.25 µM (inactive)"}, {"measurement": "GI50", "setting": "HCT-15", "value": 9.27, "unit": "µM"}, {"measurement": "GI50", "setting": "BT-549", "value": "6.35 µM (inactive)"}, {"measurement": "GI50", "setting": "OVCAR-4", "value": "7.98 µM (inactive)"}, {"measurement": "GI50", "setting": "HOP-62", "value": "> 10 µM (inactive)"}, {"measurement": "GI50", "setting": "HT-29", "value": "> 10 µM (inactive)"}, {"measurement": "GI50", "setting": "786-0", "value": "9.57 µM (inactive)"}, {"measurement": "GI50", "setting": "UACC-62", "value": "> 10 µM (inactive)"}, {"measurement": "GI50", "setting": "UACC-257", "value": "> 10 µM (inactive)"}, {"measurement": "GI50", "setting": "SN12C", "value": "> 10 µM (inactive)"}, {"measurement": "GI50", "setting": "SW-620", "value": "> 10 µM (inactive)"}, {"measurement": "GI50", "setting": "EKVX", "value": "2.67 µM (inactive)"}, {"measurement": "GI50", "setting": "SK-MEL-28", "value": "> 10 µM (inactive)"}, {"measurement": "GI50", "setting": "COLO 205", "value": "> 10 µM (inactive)"}, {"measurement": "GI50", "setting": "SK-MEL-5", "value": "3.44 µM (inactive)"}, {"measurement": "GI50", "setting": "MDA-MB-231", "value": "9.46 µM (inactive)"}, {"measurement": "GI50", "setting": "HOP-92", "value": "> 10 µM (inactive)"}, {"measurement": "GI50", "setting": "ACHN", "value": "6.14 µM (inactive)"}, {"measurement": "GI50", "setting": "PC-3", "value": "7.21 µM (inactive)"}, {"measurement": "GI50", "setting": "CAKI-1", "value": "> 10 µM (inactive)"}, {"measurement": "GI50", "setting": "NCI-H460", "value": "4.61 µM (inactive)"}, {"measurement": "GI50", "setting": "TK-10", "value": "> 10 µM (inactive)"}]}
{"smiles": "COc1ccc(CC2C(=O)OC(C)C(NC(=O)c3c4nc5c(C(=O)NC6C(=O)NC(C(C)C)C(=O)N7CCCC7C(=O)N(C)CC(=O)N(C)C(Cc7ccc(OC)cc7)C(=O)OC6C)ccc(C)c5oc-4c(C)c(=O)c3N)C(=O)NC(C(C)C)C(=O)N3CCCC3C(=O)N(C)CC(=O)N2C)cc1", "note": "(stereo not given) (I: TVP[Sar][NMeY](Me) / II: TVP[Sar][NMeY](Me); ester I:1-I:C, II:1-II:C; linker I:N-II:N via Actinocin(1to9); configuration not given here)", "values": [{"measurement": "GI50", "setting": "DU-145", "value": "0.0121 µM (active)"}, {"measurement": "GI50", "setting": "SNB-75", "value": "0.00764 µM (active)"}, {"measurement": "GI50", "setting": "A498", "value": "< 10 nM (active) and 14.9 nM (active)"}, {"measurement": "GI50", "setting": "OVCAR-8", "value": "0.00859 µM (active)"}, {"measurement": "GI50", "setting": "SF-295", "value": "0.0199 µM (active)"}, {"measurement": "GI50", "setting": "HCC 2998", "value": "< 10 nM (active) and 8.04 nM (active)"}, {"measurement": "GI50", "setting": "SNB-19", "value": "0.00637 µM (active)"}, {"measurement": "GI50", "setting": "MDA-N", "value": "0.00811 µM (active)"}, {"measurement": "GI50", "setting": "KM12", "value": "0.00516 µM (active)"}, {"measurement": "GI50", "setting": "RPMI-8226", "value": "0.0121 µM (active)"}, {"measurement": "GI50", "setting": "Malme-3M", "value": "< 10 nM (active) and 10.6 nM (active)"}, {"measurement": "GI50", "setting": "NCI-H226", "value": "< 10 nM (active) and 14.9 nM (active)"}, {"measurement": "GI50", "setting": "MDA-MB-435", "value": "0.00923 µM (active)"}, {"measurement": "GI50", "setting": "NCI-H23", "value": "0.0104 µM (active)"}, {"measurement": "GI50", "setting": "A549", "value": "0.00527 µM (active)"}, {"measurement": "GI50", "setting": "OVCAR-3", "value": "< 10 nM (active) and 9.44 nM (active)"}, {"measurement": "GI50", "setting": "T47D", "value": "0.0094 µM (active)"}, {"measurement": "GI50", "setting": "BT-549", "value": "0.0208 µM (active)"}, {"measurement": "GI50", "setting": "OVCAR-4", "value": "< 0.01 µM (active)"}, {"measurement": "GI50", "setting": "HOP-62", "value": "0.00953 µM (active)"}, {"measurement": "GI50", "setting": "UACC-62", "value": "0.0107 µM (active)"}, {"measurement": "GI50", "setting": "SF-539", "value": "< 10 nM (active) and 7.08 nM (active)"}, {"measurement": "GI50", "setting": "UACC-257", "value": "0.0155 µM (active)"}, {"measurement": "GI50", "setting": "SN12C", "value": "0.0053 µM (active)"}, {"measurement": "GI50", "setting": "SW-620", "value": "< 10 nM (active) and 13.6 nM (active)"}, {"measurement": "GI50", "setting": "SK-MEL-28", "value": "0.00964 µM (active)"}, {"measurement": "GI50", "setting": "SK-MEL-5", "value": "0.0119 µM (active)"}, {"measurement": "GI50", "setting": "ACHN", "value": "0.0102 µM (active)"}, {"measurement": "GI50", "setting": "PC-3", "value": "< 10 nM (active) and 10 nM (active)"}]}
